Experimental data as given in paper PMC6691788, “Design and synthesis of phthalazine-based compounds as potent anticancer agents with potential antiangiogenic activity via VEGFR-2 inhibition” (Journal of Enzyme Inhibition and Medicinal Chemistry, 2019).

Legend:
K-562 = experiment: NCI 60 cell panel SRB screen; assay type: cell-based; conditions: Homo sapiens, K562
MOLT-4 = experiment: NCI 60 cell panel SRB screen; assay type: cell-based; conditions: Homo sapiens
A549/ATCC = experiment: NCI 60 cell panel SRB screen; assay type: cell-based; conditions: Homo sapiens
NCI-H226 = experiment: NCI 60 cell panel SRB screen; assay type: cell-based; conditions: Homo sapiens
NCI-H522 = experiment: NCI 60 cell panel SRB screen; assay type: cell-based; conditions: Homo sapiens
HCC-2998 = experiment: NCI 60 cell panel SRB screen; assay type: cell-based; conditions: Homo sapiens
HCT-15 = experiment: NCI 60 cell panel SRB screen; assay type: cell-based; conditions: Homo sapiens
SNB-19 = experiment: NCI 60 cell panel SRB screen; assay type: cell-based; conditions: Homo sapiens
SNB-75 = experiment: NCI 60 cell panel SRB screen; assay type: cell-based; conditions: Homo sapiens
MDA-MB-435 = experiment: NCI 60 cell panel SRB screen; assay type: cell-based; conditions: Homo sapiens
OVCAR-3 = experiment: NCI 60 cell panel SRB screen; assay type: cell-based; conditions: Homo sapiens
OVCAR-4 = experiment: NCI 60 cell panel SRB screen; assay type: cell-based; conditions: Homo sapiens
OVCAR-5 = experiment: NCI 60 cell panel SRB screen; assay type: cell-based; conditions: Homo sapiens
CAKI-1 = experiment: NCI 60 cell panel SRB screen; assay type: cell-based, human
RXF 393 = experiment: NCI 60 cell panel SRB screen; assay type: cell-based; conditions: Homo sapiens
TK-10 = experiment: NCI 60 cell panel SRB screen; assay type: cell-based, human
T-47D = experiment: NCI 60 cell panel SRB screen; assay type: cell-based; conditions: Homo sapiens, T47D
full NCI 60 cell panel = experiment: NCI 60 cell panel SRB screen, whole panel; assay type: cell-based, human
Text: Aiming to evaluate the general antitumour activity of the synthesised phthalazines, the structures of the final compounds were submitted to National Cancer Institute “NCI” (www.dtp.nci.nih.gov), Bethesda, Maryland, USA. In vitro NCI anticancer screening involves two-stage process, the first stage started with the evaluation of the selected candidates against the full NCI 60 cell lines panel representing leukaemia, non-small cell lung cancer, melanoma, colon, CNS, breast, ovarian, renal and prostate cancers at a single dose of 10 µM. NCI selection is based on degree of structure variation and application of computer modelling techniques to prioritise compounds based on their ability to add diversity to the NCI small molecule compound collection.
Eight compounds (6b, 6e, 7b, 13a, 13c, 16a, 16d and 17a) were selected by NCI for further 5 log dose screening against full NCI 60 cell panel. All the 60 cell lines, representing nine tumour subpanels (leukaemia, non-small cell lung cancer, colon cancer, CNS cancer, prostate cancer, melanoma, ovarian cancer, renal cancer and breast cancer) which were incubated at five different concentrations (0.01, 0.1, 1, 10 and 100 µM) of each of the test compounds. The outcomes were used to create log concentration vs % growth inhibition curves, then three response parameters (GI50, TGI and LC50) were calculated for each cell line, (Tables S4 and S5 in Supplementary material).
The human tumor cell lines of the cancer-screening panel were grown in RPMI 1640 medium containing 5% fetal bovine serum and […] L-glutamine. For a typical screening experiment, cells are inoculated into 96 well microtiter plates in 100 ml at plating densities ranging from 5000 to 40,000 cells/well depending on the doubling time of individual cell lines. After cell inoculation, the microtiter plates are incubated at 37 °C, 5% CO2, 95% air and 100%
relative humidity for 24 h prior to addition of experimental drugs. After 24 h, two plates of each cell line are fixed in situ with TCA, to represent a measurement of the cell population for each cell line at the time of drug addition (Tz). Experimental drugs are dissolved in dimethyl sulfoxide at 400-fold the desired final maximum test concentration and stored frozen prior to use. At the time of drug addition, an aliquot of frozen concentrate is thawed and diluted to twice the desired final maximum test concentration with complete medium containing […] Gentamicin. Additional four, 10-fold or ½log serial dilutions are made to provide a total of five drug concentrations plus control. Aliquots of […] of these different drug dilutions are added to the appropriate microtiter wells already containing 100 ml of medium, resulting in the required final drug concentrations. Following drug addition, the plates are incubated for an additional 48 h at 37 °C, 5% CO2, 95% air, and 100% relative humidity. For adherent cells, the assay is terminated by the addition of cold TCA. Cells are fixed in situ by the gentle addition of […] of cold 50% (w/v) TCA (final concentration,10% TCA) and incubated for 60 min at 4 °C. The supernatant is discarded, and the plates are washed five times with tap water and air dried. Sulforhodamine B (SRB) solution (100 ml) at 0.4% (w/v) in 1% acetic acid is added to each well, and plates are incubated for 10 min at room temperature. After staining, unbound dye is removed by washing five times with 1% acetic acid and the plates are air dried. Bound stain is subsequently dissolved with 10 μM trizma base, and the absorbance is read on an automated plate reader at a wavelength of 515 nm. For suspension cells, the methodology is the same except that the assay is terminated by fixing settled cells at the bottom of the wells by gently adding […] of 80% TCA (final concentration, 16% TCA). […]

Cc1nnc(Nc2ccc(NC(=O)Nc3ccc(Cl)cc3)cc2)c2ccccc12 [Compound 6e, 1–(4-Chlorophenyl)-3–(4-(4-methylphthalazin-1-ylamino)phenyl)urea]
GI50 (K-562; K-562, 5 log dose): 2.2 µM | IC (TGI) (K-562; K-562, 5 log dose): 4.67 µM | CC50 (K-562; K-562, 5 log dose, 48 h, read-out: LC50 (the source's name)): 9.92 µM | activity at 10 µM (K-562; K-562, single dose 10 μM, read-out: percent cell growth promotion): -16.7% | GI50 (MOLT-4; MOLT-4, 5 log dose): 2.36 µM | IC (TGI) (MOLT-4; MOLT-4, 5 log dose): 6 µM | CC50 (MOLT-4; MOLT-4, 5 log dose, 48 h, read-out: LC50 (the source's name)): > 100 µM | activity at 10 µM (MOLT-4; MOLT-4, single dose 10 μM, read-out: percent cell growth promotion): 9.76% | GI50 (A549/ATCC; 5 log dose): 3.24 µM | IC (TGI) (A549/ATCC; 5 log dose): 8.59 µM | LC50 (concentration killing 50% of cells) (A549/ATCC; 5 log dose, 48 h): 37.9 µM | activity at 10 µM (A549/ATCC; single dose 10 μM, read-out: percent cell growth promotion): 26.4% | GI50 (NCI-H226; NCI-H226, 5 log dose): 3.61 µM | IC (TGI) (NCI-H226; NCI-H226, 5 log dose): 15.9 µM | CC50 (NCI-H226; NCI-H226, 5 log dose, 48 h, read-out: LC50 (the source's name)): 64.6 µM | activity at 10 µM (NCI-H226; NCI-H226, single dose 10 μM, read-out: percent cell growth promotion): 71.9% | GI50 (NCI-H522; NCI-H522, 5 log dose): 1.84 µM | IC (TGI) (NCI-H522; NCI-H522, 5 log dose): 3.88 µM | CC50 (NCI-H522; NCI-H522, 5 log dose, 48 h, read-out: LC50 (the source's name)): 8.21 µM | activity at 10 µM (NCI-H522; NCI-H522, single dose 10 μM, read-out: percent cell growth promotion): 30.3% | GI50 (HCC-2998; HCC-2998, 5 log dose): 2.84 µM | IC (TGI) (HCC-2998; HCC-2998, 5 log dose): 8.09 µM | LC50 (50% lethal concentration) (HCC-2998; HCC-2998, 5 log dose, 48 h): 27.8 µM | activity at 10 µM (HCC-2998; HCC-2998, single dose 10 μM, read-out: percent cell growth promotion): 40.5% | GI50 (HCT-15; HCT-15, 5 log dose): 1.91 µM | IC (TGI) (HCT-15; HCT-15, 5 log dose): 4.53 µM | CC50 (HCT-15; HCT-15, 5 log dose, 48 h, read-out: LC50 (the source's name)): 13.9 µM | activity at 10 µM (HCT-15; HCT-15, single dose 10 μM, read-out: percent cell growth promotion): 6.39% | GI50 (SNB-19; SNB-19, 5 log dose): 2.77 µM | IC (TGI) (SNB-19; SNB-19, 5 log dose): 8.72 µM | CC50 (SNB-19; SNB-19, 5 log dose, 48 h, read-out: LC50 (the source's name)): 56.6 µM | activity at 10 µM (SNB-19; SNB-19, single dose 10 μM, read-out: percent cell growth promotion): 16.2% | GI50 (SNB-75; SNB-75, 5 log dose): 1.91 µM | IC (TGI) (SNB-75; SNB-75, 5 log dose): 5.49 µM | LC50 (concentration killing 50% of cells) (SNB-75; SNB-75, 5 log dose, 48 h): 21.3 µM | activity at 10 µM (SNB-75; SNB-75, single dose 10 μM, read-out: percent cell growth promotion): 68.1% | GI50 (MDA-MB-435; MDA-MB-435): 1.73 µM | IC (TGI) (MDA-MB-435; MDA-MB-435, read-out: TGI): 3.43 µM | activity at 10 µM (MDA-MB-435; MDA-MB-435, read-out: percent cell growth promotion): -40% | CC50 (MDA-MB-435; MDA-MB-435, 5 log dose, 48 h, read-out: LC50 (the source's name)): 6.81 µM | GI50 (OVCAR-3; OVCAR-3, 5 log dose): 1.87 µM | IC (TGI) (OVCAR-3; OVCAR-3, 5 log dose): 3.99 µM | CC50 (OVCAR-3; OVCAR-3, 5 log dose, 48 h, read-out: LC50 (the source's name)): 8.47 µM | activity at 10 µM (OVCAR-3; OVCAR-3, single dose 10 μM, read-out: percent cell growth promotion): 44.4% | GI50 (OVCAR-4; OVCAR-4, 5 log dose): 2.79 µM | IC (TGI) (OVCAR-4; OVCAR-4, 5 log dose): 8.36 µM | CC50 (OVCAR-4; OVCAR-4, 5 log dose, 48 h, read-out: LC50 (the source's name)): 58.2 µM | activity at 10 µM (OVCAR-4; OVCAR-4, single dose 10 μM, read-out: percent cell growth promotion): 42.6% | GI50 (OVCAR-5; OVCAR-5, 5 log dose): 2.1 µM | IC (TGI) (OVCAR-5; OVCAR-5, 5 log dose): 4.99 µM | CC50 (OVCAR-5; OVCAR-5, 5 log dose, 48 h, read-out: LC50 (the source's name)): 18.7 µM | activity at 10 µM (OVCAR-5; OVCAR-5, single dose 10 μM, read-out: percent cell growth promotion): 72.8% | TGI (CAKI-1; CAKI-1, 5 log dose): 12.8 µM | GI50 (CAKI-1; Homo sapiens, CAKI-1, 5 log dose): 3.49 µM | CC50 (CAKI-1; Homo sapiens, CAKI-1, 5 log dose, 48 h, read-out: LC50 (the source's name)): 43.6 µM | activity at 10 µM (CAKI-1; Homo sapiens, CAKI-1, single dose 10 μM, read-out: percent cell growth promotion): 33.9% | GI50 (RXF 393; RXF 393, 5 log dose): 2.17 µM | IC (TGI) (RXF 393; RXF 393, 5 log dose): 4.13 µM | CC50 (RXF 393; RXF 393, 5 log dose, 48 h, read-out: LC50 (the source's name)): 7.84 µM | activity at 10 µM (RXF 393; RXF 393, single dose 10 μM, read-out: percent cell growth promotion): -39.7% | GI50 (TK-10; Homo sapiens, TK-10, 5 log dose): 3.19 µM | CC50 (TK-10; Homo sapiens, TK-10, 5 log dose, 48 h, read-out: LC50 (the source's name)): 33.7 µM | activity at 10 µM (TK-10; Homo sapiens, TK-10, single dose 10 μM, read-out: percent cell growth promotion): 51.7% | TGI (TK-10; TK-10, 5 log dose): 9.42 µM | GI50 (T-47D): 2.06 µM | IC (TGI) (T-47D; read-out: TGI): 5.08 µM | activity at 10 µM (T-47D; read-out: percent cell growth promotion): 8.43% | CC50 (T-47D; T-47D, 5 log dose, 48 h, read-out: LC50 (the source's name)): 56.4 µM | activity at 10 µM (full NCI 60 cell panel; Homo sapiens, 60 cell, mean over the panel, single dose 10 μM, read-out: Mean percent cell growth promotion): 23.2% | inhibition at 10 µM (full NCI 60 cell panel; Homo sapiens, 60 cell, single dose 10 µM, read-out: cell growth inhibition against various cell lines): > 90% | cell growth inhibition, in words (full NCI 60 cell panel; single dose 10 µM): lethal effect (above 100% inhibition) against several leukaemia, melanoma, renal cancer cell lines
